Measured values published in patent US8269008B2, “Oxazolopyridine and isoxazolopyridine derivatives for use in the treatment of HIF-mediated conditions” (FibroGen, Inc., priority 2007, dated 2012).

Target: T1, HIF-PH2 (EGLN1) (Homo sapiens, UniProt Q9GZT9)
T1 construct: made in house; host or cells: insect Hi5 cells
Assay: HIF-PH assay (14CO2 capture, peptide-dependent turnover)
Type: biochemical
Settings: for inhibition at 22.22 µM: Concentration 22.22 μM; for inhibition at 200 µM: Concentration 200.00 μM
Excerpt: Ketoglutaric acid α-[1-^14C]-sodium salt, alpha-ketoglutaric acid sodium salt, and HPLC purified peptide may be obtained from commercial sources, e.g., Perkin-Elmer (Wellesley Mass.), Sigma-Aldrich, and SynPep Corp. (Dublin Calif.), respectively. Peptides for use in the assay may be fragments of HIFα as described above or as disclosed in International Publication WO 2005/118836, incorporated by reference herein. For example, a HLF peptide for use in the HIF-PH assay is [methoxycoumarin]-DLDLEALAPYIPADDDFQL-amide. HIF-PH, e.g., HIF-PH2 (EGLN1), can be expressed in, e.g., insect Hi5 cells, and partially purified, e.g., through a SP ion exchange chromatography column. Enzyme activity is determined by capturing ^14CO2 using an assay described by Kivirikko and Myllyla (1982, Methods Enzymol. 82:245-304). Assay reactions contain 50 mM HEPES (pH 7.4), 100 μM α-ketoglutaric acid sodium salt, 0.30 μCi/mL ketoglutaric acid α-[1-^14C]-sodium salt, 40 μM FeSO4, 1 mM ascorbate, 1541.8 units/mL Catalase, with or without 50 μM peptide substrate and various concentrations of compound of the invention. Reactions are initiated by addition of HIF-PH enzyme.
The peptide-dependent percent turnover is calculated by subtracting percent turnover in the absence of peptide from percent turnover in the presence of substrate peptide. Percent inhibition and IC50 are calculated using peptide-dependent percent turnover at given inhibitor concentrations. Calculation of IC50 values for each inhibitor is conducted using GraFit software (Erithacus Software Ltd., Surrey UK). […]

T1 sequence (Q9GZT9 whole entry, species assumed): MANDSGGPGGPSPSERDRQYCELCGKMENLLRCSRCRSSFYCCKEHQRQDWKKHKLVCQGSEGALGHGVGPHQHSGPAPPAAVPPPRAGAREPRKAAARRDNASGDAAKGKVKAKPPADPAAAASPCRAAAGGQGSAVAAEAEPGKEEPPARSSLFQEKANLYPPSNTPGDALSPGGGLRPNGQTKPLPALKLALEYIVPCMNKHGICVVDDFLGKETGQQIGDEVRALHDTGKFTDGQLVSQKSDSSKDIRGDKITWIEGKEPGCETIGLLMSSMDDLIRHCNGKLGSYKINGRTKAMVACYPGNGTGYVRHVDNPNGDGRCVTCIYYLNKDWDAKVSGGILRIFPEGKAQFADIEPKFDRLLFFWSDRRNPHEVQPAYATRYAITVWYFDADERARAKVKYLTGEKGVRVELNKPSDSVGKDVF

Structure (SMILES) | inhibition at 22.22 µM [%] | inhibition at 200 µM [%]
C#Cc1nc(C(=O)NCC(=O)O)c(O)c2c(-c3ccc(Cl)cc3)noc12 [Example 28, {[3-(4-Chloro-phenyl)-7-ethynyl-4-hydroxy-isoxazolo[5,4-c]pyridine-5-carbonyl]-amino}-acetic acid] | 96.7 | –
N#Cc1nc(C(=O)NCC(=O)O)c(O)c2c(-c3ccc(F)cc3)noc12 [Example 23, {[7-Cyano-3-(4-fluoro-phenyl)-4-hydroxy-isoxazolo[5,4-c]pyridine-5-carbonyl]-amino}-acetic acid] | 98.2 | –
O=C(O)CNC(=O)c1ncc2onc(-c3ccc(C(F)(F)F)cc3)c2c1O [Example 34, {[4-Hydroxy-3-(4-trifluoromethyl-phenyl)-isoxazolo[5,4-c]pyridine-5-carbonyl]-amino}-acetic acid] | 97.8 | –
O=C(O)CNC(=O)c1ncc2c(-c3ccncc3)noc2c1O [Example 48, [(7-Hydroxy-3-pyridin-4-yl-isoxazolo[4,5-c]pyridine-6-carbonyl)-amino]-acetic acid] | – | 100
O=C(O)CNC(=O)c1nc(Br)c2onc(-c3ccc(Cl)cc3)c2c1O [Example 24, {[7-Bromo-3-(4-chloro-phenyl)-4-hydroxy-isoxazolo[5,4-c]pyridine-5-carbonyl]-amino}-acetic acid] | 100 | –
Cc1noc2cnc(C(=O)NCC(=O)O)c(O)c12 [Example 70, [(4-Hydroxy-3-methyl-isoxazolo[5,4-c]pyridine-5-carbonyl)-amino]-acetic acid] | 99.3 | –

More lines, now with the values ahead:

inhibition at 22.22 µM [%] | inhibition at 200 µM [%] | Structure (SMILES)
– | 100 | O=C(O)CNC(=O)c1nc(-c2cn(Cc3ccccc3)nn2)c2c(-c3ccccc3)noc2c1O [Example 63, {[4-(1-Benzyl-1H-[1,2,3]-triazol-4-yl)-7-hydroxy-3-phenyl-isoxazolo[4,5-c]pyridine-6-carbonyl]-amino}-acetic acid]
99.4 | – | O=C(O)CNC(=O)c1ncc2onc(-c3ccc(-c4ccccc4)cc3)c2c1O [Example 29, [(3-Biphenyl-4-yl-4-hydroxy-isoxazolo[5,4-c]pyridine-5-carbonyl)-amino]-acetic acid]
99.6 | – | O=C(O)CNC(=O)c1nc(-c2ccccn2)c2onc(-c3ccccc3)c2c1O [Example 37, [(4-Hydroxy-3-phenyl-7-pyridin-2-yl-isoxazolo[5,4-c]pyridine-5-carbonyl)-amino]-acetic acid]
– | 94.2 | O=C(O)CNC(=O)c1nc(C(F)(F)F)c2c(-c3ccccc3)noc2c1O [Example 64, [(7-Hydroxy-3-phenyl-4-trifluoromethyl-isoxazolo[4,5-c]pyridine-6-carbonyl)-amino]-acetic acid]
98.5 | – | N#Cc1nc(C(=O)NCC(=O)O)c(O)c2c(-c3ccccc3)noc12 [Example 20, [(7-Cyano-4-hydroxy-3-phenyl-isoxazolo[5,4-c]pyridine-5-carbonyl)-amino]-acetic acid]
– | 99.9 | O=C(O)CNC(=O)c1ncc2onc(-c3ccccc3)c2c1O [Example 11, [(4-Hydroxy-3-phenyl-isoxazolo[5,4-c]pyridine-5-carbonyl)-amino]-acetic acid]
– | 98.4 | O=C(O)CNC(=O)c1ncc2c(-c3ccccc3)noc2c1O [Example 42, [(7-Hydroxy-3-phenyl-isoxazolo[4,5-c]pyridine-6-carbonyl)-amino]-acetic acid]
